Assay results: ChEMBL document CHEMBL1909046, “DrugMatrix in vitro pharmacology data”

Key:
[1] = target: T1, Alpha-2A adrenergic receptor (Homo sapiens, UniProt P08913); assay type: cell membranes, Sf9, Membrane; conditions: sf9; note: in other assays of this panel Not Active means under 50% inhibition at 10 µM
T1 sequence (P08913 whole entry): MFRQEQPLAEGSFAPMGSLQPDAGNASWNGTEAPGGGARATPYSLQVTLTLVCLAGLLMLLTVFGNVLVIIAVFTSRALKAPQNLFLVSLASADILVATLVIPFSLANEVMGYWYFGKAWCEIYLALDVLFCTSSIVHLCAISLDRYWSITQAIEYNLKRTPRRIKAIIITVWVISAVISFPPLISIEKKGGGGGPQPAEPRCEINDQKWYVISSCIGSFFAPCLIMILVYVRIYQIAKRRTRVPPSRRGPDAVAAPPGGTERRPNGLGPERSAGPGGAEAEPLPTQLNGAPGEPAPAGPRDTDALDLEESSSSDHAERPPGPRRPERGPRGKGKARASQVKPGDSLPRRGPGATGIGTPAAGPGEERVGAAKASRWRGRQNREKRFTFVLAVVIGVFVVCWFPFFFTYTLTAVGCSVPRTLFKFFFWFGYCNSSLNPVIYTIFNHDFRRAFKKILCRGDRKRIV

[2] = target: Protein phosphatase 3 catalytic subunit alpha (Homo sapiens, UniProt Q08209); design: species or system Escherichia coli;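 note: inhibition of calcineurin (PP2B) enzyme activity, measured with DiFMUP as the substrate; in other assays of this panel Not Active means under 50% inhibition at 10 µM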
[3] = target: Histamine H2 receptor (Homo sapiens, UniProt P25021); assay type: cell membranes, CHO-K1, Membrane; conditions: cho-k1; note: in other assays of this panel Not Active means under 50% inhibition at 10 µM
Chain of Histamine H2 receptor (P25021 whole entry): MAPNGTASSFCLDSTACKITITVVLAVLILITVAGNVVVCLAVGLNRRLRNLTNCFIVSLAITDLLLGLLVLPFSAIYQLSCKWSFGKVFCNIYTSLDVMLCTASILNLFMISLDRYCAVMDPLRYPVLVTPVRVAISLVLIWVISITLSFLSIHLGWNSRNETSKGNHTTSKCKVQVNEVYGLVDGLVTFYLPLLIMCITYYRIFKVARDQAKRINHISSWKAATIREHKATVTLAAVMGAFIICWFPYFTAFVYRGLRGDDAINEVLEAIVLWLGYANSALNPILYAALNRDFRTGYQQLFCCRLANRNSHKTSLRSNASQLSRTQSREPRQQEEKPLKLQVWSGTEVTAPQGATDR

[4] = DRUGMATRIX: Glutamate, NMDA, Phencyclidine radioligand binding (ligand: [3H] TCP); assay type: cell membranes, Rattus norvegicus, Wistar, Cerebral cortex, Membrane; conditions: Not Active = under 50% inhibition at 10 µM
[5] = target: T2, Muscarinic acetylcholine receptor M2 (Homo sapiens, UniProt P08172); assay type: cell membranes, CHO-K1, Membrane; note: in other assays of this panel Not Active means under 50% inhibition at 10 µM
T2 sequence (P08172 whole entry): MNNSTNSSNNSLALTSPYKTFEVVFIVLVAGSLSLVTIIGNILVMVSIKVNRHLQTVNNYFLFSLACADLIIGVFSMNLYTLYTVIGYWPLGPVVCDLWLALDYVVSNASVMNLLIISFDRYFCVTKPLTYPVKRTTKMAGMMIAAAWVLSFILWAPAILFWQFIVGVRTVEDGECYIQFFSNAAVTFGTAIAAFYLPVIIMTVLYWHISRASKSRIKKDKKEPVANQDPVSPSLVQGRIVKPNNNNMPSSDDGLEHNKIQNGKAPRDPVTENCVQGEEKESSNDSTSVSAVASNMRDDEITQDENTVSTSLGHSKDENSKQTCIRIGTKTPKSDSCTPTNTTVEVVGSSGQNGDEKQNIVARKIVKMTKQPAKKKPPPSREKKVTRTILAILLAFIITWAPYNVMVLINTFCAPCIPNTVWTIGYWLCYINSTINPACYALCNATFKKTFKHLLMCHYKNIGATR

[6] = DRUGMATRIX: GABAA, Chloride Channel, TBOB radioligand binding (ligand: [3H] TBOB); assay type: cell membranes, Rattus norvegicus, Wistar, Cerebral cortex, Membrane; conditions: Not Active = under 50% inhibition at 10 µM
[7] = DRUGMATRIX: GABAA, Flunitrazepam, Central radioligand binding (ligand: [3H] Flunitrazepam); assay type: cell membranes, Rattus norvegicus, Wistar, Brain, Membrane; conditions: Not Active = under 50% inhibition at 10 µM

Row | SMILES | IC50 [1] | IC50 [2] | IC50 [3] | IC50 [4] | Ki [4] | IC50 ([5]; cho-k1) | IC50 [6] | Ki [6] | IC50 [7] | Ki [7] | IC50 ([5]; read-out: IC50) | Ki ([5]; read-out: Ki)
1 | Nn1nnc2ccccc21 | Not Active | Not Active | Not Active | Not Active | Not Active | Not Active | Not Active | Not Active | Not Active | Not Active |  | 
2 | CC[C@]1(O)CC[C@H]2[C@@H]3CCC4=CCCC[C@@H]4[C@H]3CC[C@@]21C | Not Active | Not Active | Not Active | Not Active | Not Active |  | Not Active | Not Active | Not Active | Not Active | 292 nM | 104 nM
3 | N[C@@H](Cc1ccc(F)cc1)C(=O)O | Not Active | Not Active | Not Active | Not Active | Not Active | Not Active | Not Active | Not Active | Not Active | Not Active |  | 
4 | CCOC(=O)[C@H](CCc1ccccc1)N[C@@H](C)C(=O)N1Cc2ccccc2C[C@H]1C(=O)O | Not Active | Not Active | Not Active | Not Active | Not Active | Not Active | Not Active | Not Active | Not Active | Not Active |  | 
5 | O=C(c1ccccc1Cl)N1CCC(Cc2ccccc2)CC1 | Not Active | Not Active | Not Active | Not Active | Not Active | Not Active | Not Active | Not Active | Not Active | Not Active |  | 
6 | CCOC(=O)[C@H](CCc1ccccc1)N[C@@H](C)C(=O)N1CCC[C@H]1C(=O)O | Not Active | Not Active | Not Active | Not Active | Not Active | Not Active | Not Active | Not Active | Not Active | Not Active |  | 
7 | Clc1cc2c(cc1Cl)Oc1cc(Cl)c(Cl)cc1O2 [2,3,7,8-TETRACHLORODIBENZO-P-DIOXIN] | Not Active | Not Active | Not Active | Not Active | Not Active | Not Active | Not Active | Not Active | Not Active | Not Active |  | 
8 | C=C1/C(=C\C=C2/CCC[C@]3(C)[C@@H]([C@H](C)CCCC(C)C)CC[C@@H]23)C[C@@H](O)C[C@@H]1O [ALFACALCIDOL] | Not Active | Not Active | Not Active | Not Active | Not Active | Not Active | Not Active | Not Active | Not Active | Not Active |  | 
9 | CCCCCC[C@H]1C(=O)O[C@H](C)[C@H](NC(=O)c2cccc(NC=O)c2O)C(=O)O[C@@H](C)[C@@H]1OC(=O)CC(C)C [ANTIMYCIN A] | Not Active | Not Active | Not Active | Not Active | Not Active | Not Active | Not Active | Not Active | Not Active | Not Active |  | 
10 | C[C@@H]1CC[C@H]2[C@@H](C)C(=O)O[C@@H]3O[C@@]4(C)CC[C@@H]1[C@]32OO4 [ARTEMISININ] | Not Active | Not Active | Not Active | Not Active | Not Active | Not Active | Not Active | Not Active | Not Active | Not Active |  | 
11 | CO[C@H]1[C@@H](O)[C@H](N)[C@@H](O[C@H]2O[C@H]([C@H](C)N)CC[C@H]2N)[C@H](O)[C@@H]1N(C)C(=O)CN [ASTROMICIN] | Not Active | Not Active | Not Active | Not Active | Not Active | Not Active | Not Active | Not Active | Not Active | Not Active |  | 
12 | [N-]=[N+]=CC(=O)OC[C@H](N)C(=O)O [AZASERINE] | Not Active | Not Active | Not Active | Not Active | Not Active | Not Active | Not Active | Not Active | Not Active | Not Active |  | 
13 | CC[C@H]1OC(=O)[C@H](C)[C@@H](O[C@H]2C[C@@](C)(OC)[C@@H](O)[C@H](C)O2)[C@H](C)[C@@H](O[C@@H]2O[C@H](C)C[C@H](N(C)C)[C@H]2O)[C@](C)(O)C[C@@H](C)CN(C)[C@H](C)[C@@H](O)[C@]1(C)O [AZITHROMYCIN] | Not Active | Not Active | Not Active | Not Active | Not Active | Not Active | Not Active | Not Active | Not Active | Not Active |  | 
14 | CC(C)(C)c1ccc(S(=O)(=O)/C=C/C#N)cc1 [BAY-11-7085] | Not Active | Not Active | Not Active | Not Active | Not Active | Not Active | Not Active | Not Active | Not Active | Not Active |  | 
15 | CCc1oc2ccccc2c1C(=O)c1cc(Br)c(O)c(Br)c1 [BENZBROMARONE] | Not Active | Not Active | Not Active | Not Active | Not Active | Not Active | Not Active | Not Active | Not Active | Not Active |  | 
16 | O=c1cc(-c2ccccc2)oc2ccc3ccccc3c12 [BETA-NAPHTHOFLAVONE] | Not Active | Not Active | Not Active | Not Active | Not Active | Not Active | Not Active | Not Active | Not Active | Not Active |  | 
17 | CC(C)C[C@H]1C(=O)N2CCC[C@H]2[C@]2(O)O[C@](NC(=O)[C@@H]3C=C4c5cccc6[nH]c(Br)c(c56)C[C@H]4N(C)C3)(C(C)C)C(=O)N12 [BROMOCRIPTINE] |  | Not Active | Not Active | Not Active | Not Active | Not Active | Not Active | Not Active | Not Active | Not Active |  | 
18 | CS(=O)(=O)OCCCCOS(C)(=O)=O [BUSULFAN] | Not Active | Not Active | Not Active | Not Active | Not Active | Not Active | Not Active | Not Active | Not Active | Not Active |  | 
19 | O=C(/C=C/c1ccc(O)c(O)c1)OCCc1ccccc1 [CAFFEIC ACID PHENETHYL ESTER] | Not Active | Not Active | Not Active | Not Active | Not Active | Not Active | Not Active | Not Active | Not Active | Not Active |  | 
20 | COc1cc(CNC(=O)CCCC/C=C/C(C)C)ccc1O [CAPSAICIN] | Not Active | Not Active | Not Active | Not Active | Not Active | Not Active | Not Active | Not Active | Not Active | Not Active |  | 
21 | CN1C[C@H](C(=O)N[C@]2(C)O[C@@]3(O)[C@@H]4CCCN4C(=O)[C@H](Cc4ccccc4)N3C2=O)C[C@@H]2c3cccc4[nH]cc(c34)C[C@H]21 [DIHYDROERGOTAMINE] |  | Not Active | Not Active | Not Active | Not Active | Not Active | Not Active | Not Active | Not Active | Not Active |  | 
22 | Cc1cnc(C(=O)NCCc2ccc(S(=O)(=O)NC(=O)NC3CCCCC3)cc2)cn1 [GLIPIZIDE] | Not Active |  | Not Active | Not Active | Not Active | Not Active | Not Active | Not Active | Not Active | Not Active |  | 
23 | N=C(N)N/N=C/c1c(Cl)cccc1Cl [GUANABENZ] |  | Not Active | Not Active | Not Active | Not Active | Not Active | Not Active | Not Active | Not Active | Not Active |  | 
